The text below walks through data of article PMC5500991, “Substituted arylsulphonamides as inhibitors of perforin-mediated lysis” (European Journal of Medicinal Chemistry, 2017).

One data set deals with T1, recombinant perforin (Mus musculus, UniProt P10820).
T1 sequence (P10820 21-554): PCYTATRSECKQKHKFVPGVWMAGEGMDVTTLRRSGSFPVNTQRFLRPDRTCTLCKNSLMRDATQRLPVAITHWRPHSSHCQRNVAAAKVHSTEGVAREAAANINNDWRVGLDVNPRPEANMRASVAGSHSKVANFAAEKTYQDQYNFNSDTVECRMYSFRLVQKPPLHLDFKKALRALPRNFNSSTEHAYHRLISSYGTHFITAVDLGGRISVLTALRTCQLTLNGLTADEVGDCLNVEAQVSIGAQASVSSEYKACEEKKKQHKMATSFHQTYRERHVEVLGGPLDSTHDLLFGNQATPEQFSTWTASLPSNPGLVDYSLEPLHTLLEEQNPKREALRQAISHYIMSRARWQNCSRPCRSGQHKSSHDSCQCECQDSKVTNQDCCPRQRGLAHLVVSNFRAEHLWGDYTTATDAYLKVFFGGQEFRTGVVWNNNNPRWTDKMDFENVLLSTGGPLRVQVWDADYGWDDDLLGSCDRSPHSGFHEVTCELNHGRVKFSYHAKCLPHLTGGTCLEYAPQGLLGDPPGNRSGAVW
Kind of data set: Inhibition of perforin-mediated lysis of Jurkat cells (51Cr release). It counts as cell-based. The settings on record: recombinant perforin pre-incubated with compound 30 min; 51Cr-labelled Jurkat cells, 0.1% BSA, 4 h. An excerpt: The supernatant was collected and assessed for its radioactive content on a gamma counter (Wallac Wizard 1470 automatic gamma counter).

Data set [1] in a line: In vivo plasma pharmacokinetics in mice. The conditions noted are these: mouse plasma, 10 mg/kg i.p. in 20% hydroxypropyl-β-cyclodextrin. Here is the method: The in vivo PK parameters were measured for seven compounds selected on the basis of the in vitro assessment described above. Plasma pharmacokinetics were determined in male CD-1 mice for compounds 3, 10, 11, 26, 50, 58 and 59 (Table 6). Blood samples were collected at 5–8 time-points after dosing the compounds at 10 mg/kg in a solution of 20% hydroxypropyl-β-cyclodextrin by intraperitoneal (IP) injection. For analysis of the samples, chromatographic conditions were optimised by HPLC for each compound of interest and an internal standard. A liquid chromatography with tandem mass spectrometry (LC-MS/MS) method was then developed and validated for quantitation of each analyte.
PK studies were carried out in female C57BL/6J (female) mice using IP administration of test compound, dosing at 10 mg/kg in a solution of 20% hydroxypropyl-β-cyclodextrin. Mice (n=3 at each time point) were culled with excess inhalation of CO2 and blood collected by cardiac puncture at 5-8 time points after dosing in ice cold EDTA tubes. Plasma was separated by centrifuging at 6000 rpm for 5 min and stored at -80°C until analysis by LC-MS/MS. Frozen plasma was thawed on wet ice on the day of analysis. Ten μL of sample was transferred to a clean microcentrifuge tube and mixed with ice cold acetonitrile (40 μL containing internal standard) to precipitate the plasma proteins. The tubes were centrifuged at 13000 rpm for 5 min to obtain a clear supernatant which was mixed with 0.01% formic acid-water (1:2). Ten to twenty µL was injected into the LC-MS/MS to measure the analyte concentration in the sample. The samples were quantitated against a calibration curve of known analyte concentrations run in test species blank plasma (sourced from Innovative Research, USA). The concentration vs time data was then fitted into a pharmacokinetic software program (Phoenix WinNonlin v6.2) to calculate the PK parameters including T½, Cmax and AUC0-∞.

Data set [2] concerns the target T2, perforin delivered by KHYG1 NK cells (Homo sapiens, UniProt P14222).
T2 construct: The use of whole NK cells to deliver perforin provides a more realistic model of conditions in vivo; endogenous in cells; host or cells: KHYG1 human NK cells (effector); K562 leukemia target cells
T2 sequence (P14222 22-555): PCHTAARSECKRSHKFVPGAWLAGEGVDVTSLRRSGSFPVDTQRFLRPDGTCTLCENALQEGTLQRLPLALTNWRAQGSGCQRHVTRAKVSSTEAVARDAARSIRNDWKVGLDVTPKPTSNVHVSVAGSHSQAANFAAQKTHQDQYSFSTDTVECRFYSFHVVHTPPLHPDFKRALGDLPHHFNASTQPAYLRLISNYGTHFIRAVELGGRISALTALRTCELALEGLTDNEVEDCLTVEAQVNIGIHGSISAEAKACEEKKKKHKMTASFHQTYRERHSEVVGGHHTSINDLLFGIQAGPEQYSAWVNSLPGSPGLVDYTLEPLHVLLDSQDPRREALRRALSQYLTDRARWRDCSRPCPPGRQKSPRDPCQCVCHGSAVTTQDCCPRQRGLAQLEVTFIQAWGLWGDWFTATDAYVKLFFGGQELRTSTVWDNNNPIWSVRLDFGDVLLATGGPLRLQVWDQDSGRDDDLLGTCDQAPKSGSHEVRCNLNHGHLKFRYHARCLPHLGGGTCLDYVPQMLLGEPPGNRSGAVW
Kind of data set: KHYG1 inhibitory assay: lysis of 51Cr-labelled K562 target cells by KHYG1 NK cells. The conditions noted are these: 51Cr-labelled K562 target cells co-incubated with KHYG1 human NK cells, vs untreated control, n = 4. It counts as cell-based. Here is the method:
The inhibitory function is then determined by identifying the number of untreated or inhibitor treated effector cells required to kill the same number of targets.

Data set [3] is described as follows: Stability in solution (water, 20 °C, 24 h). The conditions noted are these: sodium salt, 24 h at 20 °C in water. In kind it is physicochemical. Here is the method: Test compounds were incubated (10 μM; < 2.5% DMSO in final concentration) in Milli Q water (n=3 tubes) at 20 °C for 24 h. (Eppendorf Thermomixer Comfort). Aliquots were collected (25 μL) just before the incubation (time “0 min”) and at 24 h. These samples were stored in a -80 °C freezer until the analysis by liquid chromatography with tandem mass spectrometry spectrometry (LC-MS/MS) – see next section for method development. Samples were thawed on wet ice on the day of assay. Thawed aliquots were mixed by vortex mixer, 10 μL of the sample transferred to a clean tube, 40 μL of ice cold acetonitrile added (containing internal standard compound), then centrifuged at 13,000 rpm for 5 min, 40 μL of clear supernatant transferred to an HPLC insert and mixed with 80 μL of 0.01% formic acid in water. Ten to 20 μL was injected onto the LC-MS/MS system. Results are based on the peak area ratio of drug to internal standard at time “0 h” (i.e. before the incubation and at the end i.e. “24 h”).

A short description of data set [4]: Microsome stability, mouse. It counts as in vitro ADME. The settings on record: parent (as sodium salt) remaining after 30 min, mouse microsomes. Here is the method: (§1) Microsome stability was carried out at Cyprotex using pooled human liver microsomes (male and female), pooled rat liver microsomes (male, Sprague Dawley rats), pooled mouse liver microsomes (male CD-1 mice) which were either prepared or purchased from a reputable commercial supplier. […] The final incubation volume was 25 μL. A control incubation was included for each compound tested where 0.1 M phosphate buffer pH 7.4 was added instead of NADPH (minus NADPH). Two control compounds were included with each species. All incubations were performed singularly for each test compound. Each compound was incubated for 0, 5, 15, 30 and 45 min. The control (minus NADPH) was incubated for 45 min only. The reactions were stopped by the addition of 50 μL methanol containing internal standard at the appropriate time points. The incubation plates were centrifuged at 2,500 rpm for 20 min at 4 °C to precipitate the protein. Following precipitation, the sample supernatants were combined in cassettes of up to 4 compounds and analysed using Cyprotex generic LC-MS/MS conditions. From a plot of ln peak area ratio (compound peak area/internal standard peak area) against time, the percentage compound remaining at 30 min was calculated. Results that were > 100% of matched control were defined as 100%.

A short description of another data set: Microsome stability, rat. In kind it is in vitro ADME. The conditions noted are these: parent (as sodium salt) remaining after 30 min, rat microsomes. Here is the method:
as §1

Data set [5] is described as follows: Toxicity to KHYG1 NK cells (Trypan blue exclusion). The conditions noted are these: human, viability of KHYG1 NK cells after 24 h, n = 3. In kind it is cell-based, human. Here is the method:
The toxicity assay was carried out in exactly the same manner as the killing assay above, but instead of adding the labelled K562 target cells, 100 μL of RPMI 0.1% BSA was added. Cells were incubated for 4 h at 37 °C and then washed ×3 in RPMI + 0.1% BSA. […] Trypan blue was added to each well. Viable (clear) cells and total (clear + blue) cells were counted, and the percentage of viable cells was calculated compared to DMSO treated cell control (% viability).

The nature of data set [6]: Solubility of the sodium salt in water. It counts as physicochemical. The conditions noted are these: sodium salt in water at room temperature. Here is the method:
The compound was dissolved in water until it was no longer soluble in order to achieve a supersaturated concentration. The suspensions were sonicated for 15 min. prior to centrifugation at 13,000 revolutions per minute (rpm) for 6 minutes. Supernatants were removed and then recentrifuged prior to dilution of at least two fold in water to avoid precipitation during HPLC analysis.

Usually melting point stands for the temperature, or range, at which the solid turns liquid. In the case of `CN1Cc2cc(-c3ccc(-c4ccc(NS(=O)(=O)c5ccc(F)cc5F)nc4)s3)ccc2C1=O` [Compound 4, 2,4-Difluoro-N-(5-(5-(2-methyl-1-oxoisoindolin-5-yl)thiophen-2-yl)pyridin-2-yl)benzenesulfonamide], the melting point fell in the range of 269 to 272 °C. Further, at recombinant perforin, the “Inhibition of Jurkat Cell Lysis IC50” value is on record as “activity is abolished”.
Take `CN1Cc2cc(-c3ccc(-c4cncc(NC(=O)c5ccc(F)cc5F)c4)s3)ccc2C1=O` [Compound 8, 2,4-Difluoro-N-(5-(5-(2-methyl-1-oxoisoindolin-5-yl)thiophen-2-yl)pyridin-3-yl)benzamide]: the melting point is 267 to 269 °C. Moreover, the “Inhibition of Jurkat Cell Lysis IC50” value on recombinant perforin is “complete loss of potency”.
One may read the Cmax as the highest concentration seen after dosing. The term inhibition denotes the drop in the measured response relative to a control, in per cent. In general, viability refers to the share of living cells, or the viability signal relative to a control. High values mean better survival, low ones a greater loss of cells. Broadly, the solubility is how much of the substance goes into solution per volume. Consider `CN1Cc2cc(-c3ccc(-c4cncc(NS(=O)(=O)c5c(F)cc(F)cc5F)c4)s3)ccc2C1=O` [Compound 26, 2,4,6-Trifluoro-N-(5-(5-(2-methyl-1-oxoisoindolin-5-yl)thiophen-2-yl)pyridin-3-yl)benzenesulfonamide], for which, in [1], the “AUC0-∞” value was determined as 1019 µM·h, the Cmax was 124 µM and the T1/2 was found to be 4.5 h. Besides, the inhibition at 10 µM in data set [2] worked out at 81.3 ± 6.3%. For the same compound, the “Stability in Solution (% parent remaining)” value in data set [3] is 88%. The “Microsome Stability (%) Mouse” value in [4] was determined as 100%. In addition, in “Microsome stability, rat”, the “Microsome Stability (%) Rat” value worked out at 83%. In data set [5], this compound displayed a viability at 24 h, 10 µM of 95.1 ± 2.1%. In data set [6], the Solubility result is “highly soluble” and the solubility at 15 min was 10700 µg/mL.
Consider `CN1Cc2cc(-c3ccc(-c4cncc(NS(=O)(=O)c5ccccc5C(F)(F)F)c4)s3)ccc2C1=O` [Compound 44, N-(5-(5-(2-Methyl-1-oxoisoindolin-5-yl)thiophen-2-yl)pyridin-3-yl)-2-(trifluoromethyl)benzenesulfonamide], for which the inhibition at 10 µM in [2] turned out to be 85 ± 5.6%. Besides, the “Stability in Solution (% parent remaining)” value in [3] is 92%. The “Microsome Stability (%) Mouse” value in data set [4] came to 84%. Moreover, the “Microsome Stability (%) Rat” value in “Microsome stability, rat” was 49%. Further, the viability at 24 h, 10 µM in [5] stood at 100%. In data set [6], the Solubility entry is “negative impact on solubility” and the solubility at 15 min was found to be 88 µg/mL.
`CN1Cc2cc(-c3ccc(-c4cncc(NS(=O)(=O)c5cccc(C(F)(F)F)c5)c4)s3)ccc2C1=O` [Compound 45, N-(5-(5-(2-Methyl-1-oxoisoindolin-5-yl)thiophen-2-yl)pyridin-3-yl)-3-(trifluoromethyl)benzenesulfonamides]: the inhibition at 10 µM in data set [2] came out at 88.8 ± 1.9%. Further, the “Microsome Stability (%) Mouse” value in data set [4] is listed as 97%. In addition, in the data set “Microsome stability, rat”, the “Microsome Stability (%) Rat” value was determined as 80%. Besides, in data set [5], the viability at 24 h, 10 µM came out at 100%. In addition, in data set [6], the Solubility result is listed as “negative impact on solubility” and the solubility at 15 min turned out to be 574 µg/mL.
For the compound `CN1Cc2cc(-c3ccc(-c4cncc(NS(=O)(=O)c5ccc(C#N)cc5)c4)s3)ccc2C1=O` [Compound 50, 4-Cyano-N-(5-(5-(2-methyl-1-oxoisoindolin-5-yl)thiophen-2-yl)pyridin-3-yl)benzenesulfonamide], in [1], the “AUC0-∞” value amounted to 642 µM·h, the Cmax stood at 87 µM and the T1/2 is 3.3 h. In data set [2], the inhibition at 10 µM was found to be 75 ± 7.8%. For the same compound, in [3], the “Stability in Solution (% parent remaining)” value turned out to be 85%. In addition, in data set [4], the “Microsome Stability (%) Mouse” value was determined as 87%. For the same compound, the “Microsome Stability (%) Rat” value in the data set “Microsome stability, rat” is given as 64%. This compound displayed a viability at 24 h, 10 µM in data set [5] of 99.3 ± 0.3%. Moreover, in data set [6], the Solubility result is recorded as “highly soluble” and the solubility at 15 min is 12900 µg/mL.
On to `CN1Cc2cc(-c3ccc(-c4cncc(NS(=O)(=O)c5ccc([N+](=O)[O-])cc5)c4)s3)ccc2C1=O` [Compound 59, N-(5-(5-(2-Methyl-1-oxoisoindolin-5-yl)thiophen-2-yl)pyridin-3-yl)-4-nitrobenzenesulfonamide], for which, in data set [1], the “AUC0-∞” value is 383 µM·h, the Cmax was 64 µM and the T1/2 worked out at 2.2 h. Moreover, the inhibition at 10 µM in data set [2] was 77.5 ± 5.6%. The “Microsome Stability (%) Mouse” value in [4] is 85%. For the same compound, the “Microsome Stability (%) Rat” value in “Microsome stability, rat” came to 72%. In addition, the viability at 24 h, 10 µM in [5] worked out at 85 ± 12%. Moreover, in [6], the solubility at 15 min was 1680 µg/mL.
